Measurements taken from patent publication US9949465B2, “Atopic dermatitis model animal and use thereof” (HYOGO COLLEGE OF MEDICINE, priority 2013, dated 2018).
Counter-ions that a name gives are not always drawn.

How the values were obtained:
hK14mIL33tg mice [1] = experiment: Rash score of hK14mIL33tg mice after application to rash site; format: in vivo, mouse
Protocol: Each item can be measured by a known method, or according to the below-mentioned Examples. For example, as for the rash score, 5 items of pruritus, erythematous plaque/bleeding, edema, epidermis detachment/erosion, and desquamation/drying are evaluated and rated as absent (0 point), mild (1 point), moderate (2 points), and severe (3 points), and the total points are used for measurement (Matsuda H et al., Int. Immunol, 9(3):461-466, 1997). As for the number of inflammatory cells, for example, cells derived from skin tissue, peripheral blood or lymph node are analyzed by flow cytometry, and the ratio thereof can be measured. The inflammatory cells include eosinophils, neutrophils, basophils, mast cells, type 2 innate lymphoid cells and the like, preferably eosinophils, mast cells and type 2 innate lymphoid cells. The total IgE concentration, histamine concentration, cytokine concentration and chemokine concentration can be measured by ELISA using each antibody. As used herein, cytokine is preferably IL-5 or IL-13. […]
An effect of steroid drug on scratching behavior of hK14mIL33tg mice was verified. […] As rash scores, 5 items of pruritus, erythematous plaque/bleeding, edema, epidermis detach/erosion, and desquamation/drying were evaluated into absent (0 point), mild (1 point), moderate (2 points), and severe (3 points) (Matsuda H et al., Int. Immunol, 9(3):461-466, 1997). […]

hK14mIL33tg mice [2] = experiment: Scratching behavior (skin scratching time) in hK14mIL33tg mice; format: in vivo, mouse
Protocol: Skin scratching time (sec/min) in any 20 min of wild-type mice (WT) and hK14mIL33tg mice (Tg) was measured. […] Furthermore, an effect of anti-histamine drugs on the scratching behavior was verified. Diphenhydramine hydrochloride (2 mg) was intraperitoneally administered to hK14mIL33tg mice. As a result, the scratching time of mice observed in 20 min from 6 min after the administration decreased from average 4.6 min to average 0.2 min (FIG. 19).

Row | SMILES | total points of rash score after application (hK14mIL33tg mice [1]; applied to rash site 5 times every 2 days, average, n=4, before application average 12.3 points, 5 items scored 0-3) | rash score (result in words) (hK14mIL33tg mice [1]; hK14mIL33tg (Tg) mice) | scratching time after administration (hK14mIL33tg mice [2]; 2 mg intraperitoneally, observed in 20 min from 6 min after the administration, average, n=3, before administration average 4.6 min) | scratching time (result in words) (hK14mIL33tg mice [2]; hK14mIL33tg (Tg) mice, increased scratching time vs wild-type)
1 | CCCC(=O)O[C@]1(C(=O)COC(=O)CC)[C@@H](C)C[C@H]2[C@@H]3CCC4=CC(=O)C=C[C@]4(C)[C@@]3(F)[C@@H](O)C[C@@]21C [betamethasone butyrate propionate] | 4.8 points | could reduce | – | –
2 | CN(C)CCOC(c1ccccc1)c1ccccc1 [Diphenhydramine hydrochloride] | – | – | 0.2 min | could reduce
